The source of these data is patent US20070219213A1, “Use of Adrenergic N-Phenylpiperazine Antagonists, Pahrmaceutical Compositions Containning Them, and Methods of Preparing Them” (priority 2004, published 2007).

Experiment [1] deals with T1, alpha 1A subtype (Rattus norvegicus, UniProt P43140).
T1 sequence (P43140 1-466): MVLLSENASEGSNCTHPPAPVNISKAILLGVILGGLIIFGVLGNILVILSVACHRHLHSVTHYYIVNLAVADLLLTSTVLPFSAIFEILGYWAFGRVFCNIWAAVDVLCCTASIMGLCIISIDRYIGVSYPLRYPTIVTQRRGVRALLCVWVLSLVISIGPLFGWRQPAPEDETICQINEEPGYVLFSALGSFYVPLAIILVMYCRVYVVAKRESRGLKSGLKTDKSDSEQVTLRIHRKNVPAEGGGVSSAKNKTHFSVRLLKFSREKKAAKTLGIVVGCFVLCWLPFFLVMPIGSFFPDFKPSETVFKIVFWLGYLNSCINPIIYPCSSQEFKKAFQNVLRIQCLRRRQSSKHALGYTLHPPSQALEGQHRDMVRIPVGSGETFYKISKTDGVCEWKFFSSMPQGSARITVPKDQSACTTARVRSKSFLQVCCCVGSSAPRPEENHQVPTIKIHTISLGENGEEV
Also on record: from tissue; host or cells: rat salivary gland homogenate/membranes. The settings on record: 0.06 nM [3H]prazosin (Michel et al.), read-out: IC50 of reference; cited from earlier work.

Experiment [2] concerns alpha 1A adrenoceptor (human prostatic membranes). The settings on record: similar models; literature (Motiyama et al.); cited from earlier work.
For experiment [3], the system named is alpha 1A and alpha 1B adrenoceptors (rabbit aorta, α1A > α1B). The settings on record: literature (Yamagishi et al.); cited from earlier work.
The target in experiment [4] is T2, alpha 1D adrenoceptor (rat aorta) (Rattus norvegicus, UniProt P23944).
T2 construct: from tissue; host or cells: rat aorta segments with endothelium
T2 sequence (P23944 1-561): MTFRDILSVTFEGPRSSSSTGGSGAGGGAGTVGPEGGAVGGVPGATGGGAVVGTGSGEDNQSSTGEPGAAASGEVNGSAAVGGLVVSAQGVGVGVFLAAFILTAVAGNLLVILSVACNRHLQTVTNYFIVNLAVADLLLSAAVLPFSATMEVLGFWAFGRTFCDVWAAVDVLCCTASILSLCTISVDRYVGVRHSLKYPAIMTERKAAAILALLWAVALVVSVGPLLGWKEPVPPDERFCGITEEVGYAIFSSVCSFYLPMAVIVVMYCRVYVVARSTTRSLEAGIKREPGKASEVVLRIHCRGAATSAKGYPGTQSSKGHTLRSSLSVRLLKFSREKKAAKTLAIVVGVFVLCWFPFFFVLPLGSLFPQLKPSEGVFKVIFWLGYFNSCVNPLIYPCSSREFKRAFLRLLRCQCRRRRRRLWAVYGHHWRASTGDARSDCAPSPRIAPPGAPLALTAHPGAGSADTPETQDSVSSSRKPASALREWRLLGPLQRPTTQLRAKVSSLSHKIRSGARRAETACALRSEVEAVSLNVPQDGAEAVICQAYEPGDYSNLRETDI
Description: Vasoconstriction assay in rat aorta induced by norepinephrine. The following applies: pKB, rat aorta, α1D. Format: cell-based. On the procedure:
Vasoconstriction Assay in Mouse Aorta Induced By Norepinephrine
Aorta segments with endothelium (3 mm), withdrawn from young male rats (250-300 g), were placed in containers containing physiologic solution (NaCl 122 mM, KCl 5 mM, NaHCO3 15 mM, glucose 11.5 mM, MgCl2 1.2 mM, CaCl2 1.25 mM and KH2PO4 1.2 mM), kept at 37° C. under aeration with a mixture of 95% of O2 and 5% of CO2, and submitted to a pre-charge of 5 mN for 60 minutes. During this period, eventual tension adjustments were performed until the stabilization in 0.5 g, always with renewal with physiologic solution. Then, vasoconstriction was induced by 60 mM KCl solution, in each ring, to verify the viability of the organ on the day of experiment. The preparation was submitted to the contraction with norepinephrine (5×10^−5 M) and, then the rings were washed to reach the basal line (0% of vasoconstriction). The procedure was repeated until the obtainment of a constant curve. Later, a curve, using increasing concentrations of norepinephrine (3×10^−8-5×10^−5 M), was performed for each ring, as a positive control. The segments were washed to reach the basal line (0% of vasoconstriction) and incubated with the test compounds, individually, for 30 minutes. A second norepinephrine curve was performed and obtained data compared to the first control curve. […] The aorta rings were used once for each compound.
Determination of the LASSBio 772 Antagonist Potency (pKB) on the Vasoconstriction of Rabbit or Rat Thoracic Aorta.

For experiment [5], the system named is phenylephrine vasopressor effects. In words: Inhibition of phenylephrine vasopressor effects in anesthetized rabbits. Format: in vivo. The following applies: rabbit, n=5. The procedure: Animal and Homodynamic Measurements:
The experiments were performed with male rabbits weighing 3 kg, from the CECAL (Centro de Criação de Animais de Laboratório) at Fundação Oswaldo Cruz. The animals were anesthetized with sodium pentobarbital (40 mg/kg) in the ear marginal vein, and anesthesia maintenance was obtained with supplemental intravenous (i.v.) doses of 5 mg/kg as necessary. The […] were tracheomized, inserted with a polyethylene canule, and immobilized with pancuronium bromide (1 mg/kg, i.v.), with supplemental doses of 0.2 mg/kg for each hour of experiment and artificially ventilated with a mechanical fan (Rodent ventilator 7025, Ugo Basile) with a volume of 10 ml/kg and frequency from 40 to 50 incursions/min. The right femoral vein was catheterized for drug administration.
The arterial pressure was monitored through abdominal aorta catheter via the right femoral artery and connected to a quartz transductor Hewlett Packard (1290 A), which was connected to an arterial pressure processor and recorder Hewlett Packard (system 7754 with amplifier 8805 B).
The systolic (SAP) and diastolic (DAP) arterial pressures were obtained directly from the records and the average arterial pressure (AAP) was calculated by DAP's Sum with a third of the differential pressure [[…]]. The cardiac frequency was determined by counting the pressure waves, visualized with the speed increase of the recorder paper.
The cardiac debit (DC) was monitored using an electromagnetic probe, connected to a Skalar flowmeter model MDL 1401. After left thoraxatomy, between the second and third ribs, was made an incision in the pericardium and the heart was exposed to enable the visualization and dissection of the ascending aorta for installation of the electromagnetic probe. The systemic vascular resistance (SVR) was calculated as a quotient of the average arterial pressure by the cardiac debit, multiplied by a conversion factor 80 (SVR=AAP/DC×80) and expressed in dyn/seg/cm-5.
At the conclusion of the anesthetic-surgical procedures, a 15-minute period was allowed for stabilization of the homodynamic parameters. Before any pharmacological manipulation the average arterial pressure, cardiac frequency and cardiac debit measurements were obtained. These values were considered basal homodynamic values.
Dose-Response Curve of the Phenylephrine Vasopressor Effect:
After surgical procedures and stabilization of the homodynamic parameters, a dose-response curve of the phenylephrine pressure effects was performed ([…], i.v.), that were named control curves. […]
The results were expressed as average±standard deviation (E.P.M.) The administration effects of LASSBio 772 with regard to the basal values were analyzed through variance analysis (ANOVA) for repeated measurements. […]

Experiment [6] addresses T3, alpha 1B subtype (Rattus norvegicus, UniProt P15823).
T3 construct: from tissue; host or cells: rat liver homogenate/membranes
T3 sequence (P15823 1-515): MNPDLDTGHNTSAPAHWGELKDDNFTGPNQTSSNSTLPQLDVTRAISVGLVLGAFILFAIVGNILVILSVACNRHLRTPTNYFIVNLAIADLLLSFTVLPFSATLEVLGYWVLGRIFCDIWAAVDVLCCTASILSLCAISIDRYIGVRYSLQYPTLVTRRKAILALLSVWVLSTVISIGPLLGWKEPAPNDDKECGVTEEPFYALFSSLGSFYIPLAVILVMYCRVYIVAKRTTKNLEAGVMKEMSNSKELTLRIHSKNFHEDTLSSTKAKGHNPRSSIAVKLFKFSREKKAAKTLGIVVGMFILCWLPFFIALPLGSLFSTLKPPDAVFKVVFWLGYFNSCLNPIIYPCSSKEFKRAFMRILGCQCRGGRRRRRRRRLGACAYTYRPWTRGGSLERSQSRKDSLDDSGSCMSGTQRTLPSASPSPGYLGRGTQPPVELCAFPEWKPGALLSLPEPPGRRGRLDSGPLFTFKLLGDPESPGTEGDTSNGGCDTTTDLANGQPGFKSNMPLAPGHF
Description: [3H]prazosin binding assay in rat liver. The settings on record: rat liver, α1B; read-out: IC50.

The target of experiment [7] is T4, α1A (Oryctolagus cuniculus, UniProt O02824).
T4 construct: from tissue
T4 sequence (O02824 1-466): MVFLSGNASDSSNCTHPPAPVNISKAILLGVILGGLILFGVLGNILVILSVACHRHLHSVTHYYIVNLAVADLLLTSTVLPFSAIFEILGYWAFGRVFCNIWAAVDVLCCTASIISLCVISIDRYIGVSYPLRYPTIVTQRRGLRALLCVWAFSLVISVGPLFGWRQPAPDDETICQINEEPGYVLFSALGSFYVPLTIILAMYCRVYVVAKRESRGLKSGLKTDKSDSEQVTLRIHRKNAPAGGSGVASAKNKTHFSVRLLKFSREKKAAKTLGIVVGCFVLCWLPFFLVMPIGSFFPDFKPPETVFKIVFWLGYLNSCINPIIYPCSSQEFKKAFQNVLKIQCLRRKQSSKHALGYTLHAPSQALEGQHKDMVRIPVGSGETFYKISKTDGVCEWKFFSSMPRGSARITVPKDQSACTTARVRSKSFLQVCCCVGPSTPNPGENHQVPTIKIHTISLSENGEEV
In words: Binding study in rabbit liver. The settings on record: rabbit liver, α1A; read-out: IC50.

As to `COc1cccc(OC)c1OCCNCC1COc2ccccc2O1` (stereo not drawn) [WB 4101], in experiment [1], the IC50 was 600 pM.

As for `CCOc1ccccc1OCCN[C@H](C)Cc1ccc(OC)c(S(N)(=O)=O)c1` [tamsulosin], in experiment [2], the Kb is 200 pM and the pKB is listed as 9.68.

Consider `C[C@H](Cc1cc2c(c(C(N)=O)c1)N(CCCO)CC2)NCCOc1ccccc1OCC(F)(F)F` [KMD-3213], for which, in experiment [2], the Kb was 350 pM and the pKB is listed as 9.45.

On to `COc1cc2nc(N3CCN(C(=O)c4ccco4)CC3)nc(N)c2cc1OC` [Prazosin, prazosin], for which, in experiment [3], the Kb was 1020 pM and the pKB was 9.05. For the same molecule, in experiment [2], the Kb is 1450 pM and the negative-log KB (pKB) was 8.84.

`COc1ccccc1N1CCN(CCc2ccccc2)CC1` [LASSBio 772B, 4-Phenethyl-1-(2-methoxy-phenyl)-piperazine] showed a Kb in experiment [4] of 20 pM. Further, the “AAP increase induced by phenylephrine in the presence of compound” value in experiment [5] (phenylephrine 100 μg/kg i.v.) is 9±4%. In addition, the “SVR increase induced by phenylephrine in the presence of compound” value in experiment [5] (phenylephrine 100 μg/kg i.v.) is 15±5%. Also, the “decrease of DC induced by phenylephrine in the presence of compound” value in experiment [5] (phenylephrine i.v.) turned out to be 7±2%. In addition, the IC50 was 130000 pM in experiment [6] and 23900 pM in experiment [7].

Broadly, the IC50 is the concentration at which inhibition is half-maximal. A word on the pKB: it is the KB on a negative log10 scale, so that one unit is a factor of ten.
